Source: patent publication US20230210834A1, “RNA METHYLTRANSFERASE INHIBITOR, SCREENING METHOD THEREFOR, ANTI-CANCER AGENT EFFICACY ASSESSMENT MARKER, AND KIT FOR EFFECTIVELY PREDICTING FTSJ1 INHIBITOR” (National University Corporation Okayama University, priority 2019, published 2023)

What was measured:
[1] = test system: polyglutamine luciferase reporter; test: Screening: polyglutamine luciferase reporter assay in NUGC3 cells (luminescence % of DMSO); assay type: cell-based, human; settings: polyglutamine luciferase reporter, NUGC3 cells, luminescence relative to DMSO; concentration not given
Experimental: (§1) Human gastric cancer cell line NUGC3 was cultured in a DMEM medium (high glucose with L-glutamine and phenol red, produced by FUJIFILM Wako Pure Chemical Corporation) containing 10% fetal bovine serum (produced by Thermo Fisher Scientific Inc.) and penicillin-streptomycin (produced by FUJIFILM Wako Pure Chemical Corporation) (this medium is simply referred to below as “DMEM+10% FBS+1×P/S”). Then, the NUGC3 cells were seeded in a 60-mm culture dish (produced by BioLite) so that the cells were 80% confluent after 24 hours. Subsequently, 5 μg of a reporter plasmid and 15 μL of a lipofection reagent (transIT-LT1, produced by Mirus Bio LLC) were mixed in 500 μL of Opti-MEM medium (produced by Thermo Fisher Scientific, Inc.) to form a complex, which was added to the medium in which the NUGC3 cells were cultured in the 60-mm culture dish. For use as the reporter plasmid, 5 μg of a polyglutamine luciferase reporter was introduced (in the polyglutamine luciferase reporter, a Renilla luciferase expressed in the IRES was located as an internal standard downstream of the sequence of a firefly luciferase sequence to which polyglutamine was added). Alternatively, a YAP/TAZ activity reporter was used by simultaneously introducing 3 μg of 8×GTIIC plasmid and 2 μg of a Renilla luciferase reporter as an internal standard. After another 24 hours, the cells were exfoliated with a 0.05 w/v % trypsin-0.53 mmol/l EDTA-4Na solution (produced by FUJIFILM Wako Pure Chemical Corporation), and then seeded in a 96-well plate (produced by BioLite) so that the cells were 80% confluent after 24 hours. Twenty-four hours after seeding in the 96-well plate, the medium in each well was replaced with 100 μL of a medium (DMEM+10% FBS+an antibiotic) containing 10 μM or 5 μM of a compound for evaluation. After another 24 hours, the medium containing the compound was removed, and the 96-well plate was transferred on ice. Each well was washed with 100 μL of phosphate buffer (PBS, produced by FUJIFILM Wako Pure Chemical Corporation). Thereafter, 20 μL of Passive Lysis Buffer (1×) contained in a Dual-Luciferase Reporter Assay System (produced by Promega Corporation) was added. The plate was then gently shaken for 15 minutes at room temperature to lyse the cells. After confirming that the cells were lysed, 10 μL of the lysate was transferred from each well to each corresponding well of a white 96-well plate (produced by Greiner Bio-one). To each well of the white 96-well plate was added 100 μL of a mixture of a Luciferase Assay Buffer II and Luciferase Assay Substrate contained in the Dual-Luciferase Reporter Assay System (produced by Promega Corporation), whereby the luminescence of the firefly luciferase was induced, and the luminescence intensity was detected with a microluminometer (produced by Berthold Japan K.K.). Subsequently, 100 μL of a mixture of Stop & Glo Buffer and Stop & Glo Substrate contained in the Dual-Luciferase Reporter Assay System (produced by Promega Corporation) was added, whereby the luminescence of firefly luciferase was quenched while the luminescence of Renilla luciferase was induced, and the luminescence intensity was detected with a microluminometer (produced by Berthold Japan K.K.) in a manner similar to the above. The ratio of the luminescence intensity of the firefly luciferase and the luminescence intensity of the Renilla luciferase was calculated, and the luminescence intensity (%) of the wells containing each compound was calculated with the luminescence intensity of the well containing DMSO (dimethyl sulfoxide, used as a solvent for the compound liquids) taken as 100%. […] Unless otherwise specified, the measured values in the table represent the results obtained by evaluation with the addition of 10 μM of each compound for evaluation.

[2] = test system: YAP/TAZ; test: Screening: YAP/TAZ activity reporter (8xGTIIC plasmid) assay in NUGC3 cells (luminescence % of DMSO); assay type: cell-based, human; settings: YAP/TAZ activity reporter (8×GTIIC), NUGC3 cells, luminescence relative to DMSO; concentration not given
Experimental: as §1

SMILES	Polyglutamine [1]	8×GTIIC [2]
CC(=O)C1CC(c2cccc(C)c2)CC1c1ccccc1 (stereo not drawn) [PZ163]	71.16%	103.2%
CCc1ccc(C2=CC(C(C)=O)C(c3ccc(CC)c(C)c3)C2)cc1 (stereo not drawn) [PZ173]	67.61%	160.5%
CC(=O)C1CC(c2ccc(C)cc2)CC1c1ccc2ccccc2c1 (stereo not drawn) [PZ177]	43.89%	71.59%
CC(=O)C1C=C(c2ccc(C)cc2)CC1c1ccc2ccccc2c1 (stereo not drawn) [PZ178]	60.25%	119.3%
CC(=O)C1C=C(c2ccccc2)CC1c1ccc2ccccc2c1 (stereo not drawn) [PZ179]	66.51%	95.65%
Cc1ccc(S(=O)(=O)CC2CC(C)(C)CC(C)(C)C2)cc1C(F)(F)F [SA001]	83.34%	74.98%
Cc1cc(C)c(S(=O)(=O)CC2CC(C)(C)CC(C)(C)C2)cc1C [SA002]	49.58%	47.03%
CCCc1cc(C)c(C(C)C)cc1S(=O)(=O)CC1CC(C)(C)CC(C)(C)C1 [SA003]	37.79%	46.84%
CCc1cc(C)c(S(=O)(=O)CC2CC(C)(C)CC(C)(C)C2)cc1C(C)C [SA006]	37.54%	40.21%
Cc1cc(C)c(S(=O)(=O)CC2CC(C)(C)CC(C)(C)C2)cc1C [SA007]	55.29%	56.96%
Cc1cc(C)c(S(=O)(=O)CC2CC(C)(C)CC(C)(C)C2)cc1C [SA008]	51.03%	57.06%
Cc1cc(C)c(S(=O)(=O)CC2CC(C)(C)CC(C)(C)C2)cc1C [SA009]	73.02%	80.29%
CCc1cc(C)c(S(=O)(=O)CC2CC(C)(C)CC(C)(C)C2)cc1C [SA010]	59.61%	64.43%
CCCc1cc(S(=O)(=O)CC2CC(C)(C)CC(C)(C)C2)ccc1C [SA011]	60.35%	67.54%
O=C(CCCCc1ccccc1)C1CCC(CS(=O)(=O)c2ccccc2)CC1 (stereo not drawn) [SA012]	86.48%	91.92%
CC(C)(C)c1cccc(S(=O)(=O)C2CCC(CS(=O)(=O)c3ccccc3)CC2)c1 (stereo not drawn) [SA016]	43.01%	53.02%
CCOc1cc(S(=O)(=O)C2CCC(NS(=O)(=O)c3ccccc3)CC2)ccc1COC (stereo not drawn) [SA018]	78.85%	74.98%
Cc1ccc(C(C)(C)C)cc1S(=O)(=O)C1CCC(NS(=O)(=O)c2ccccc2)CC1 (stereo not drawn) [SA019]	55.62%	66.45%
COc1ccc(S(=O)(=O)C2CCC(CS(=O)(=O)c3c(C)c(C)c(C)c(C)c3C)CC2)cc1 (stereo not drawn) [SA020]	27.71%	36.19%
CCc1ccc(S(=O)(=O)C2CCC(CS(=O)(=O)c3cc(C)cc(C)c3)CC2)cc1 (stereo not drawn) [SA021]	44.6%	70.64%
CCCC(=O)C1CCC(CS(=O)(=O)c2ccc3c(c2)CCC(=O)C3)CC1 (stereo not drawn) [SA022]	102.2%	66.88%
Cc1cc(C)c(S(=O)(=O)CC2CC(C)(C)SC(C)(C)C2)cc1C [SA023]	63.47%	87.74%
CCCC(=O)C1CCC(CS(=O)(=O)c2ccc(C)cc2C)CC1 (stereo not drawn) [SA025]	49.45%	46.27%

SMILES	Polyglutamine [1]	8×GTIIC [2]
CCCC(=O)C1CCC(CS(=O)(=O)c2ccc(C)c(C)c2)CC1 (stereo not drawn) [SA026]	63.06%	46.21%
Cc1c(C)c(C)c(S(=O)(=O)CC2CC(C)(C)CC(C)(C)C2)c(C)c1C [SA028]	60.03%	59.49%
CCCc1ccc(S(=O)(=O)CC2CCC(C3CC3)CC2)cc1OCC (stereo not drawn) [SA029]	58.64%	65.65%
Cc1cccc(S(=O)(=O)CC2CCC(C3CC3)CC2)c1C (stereo not drawn) [SA030]	86.26%	73.56%
O=S(=O)(CC1CCC(C2CC2)CC1)c1ccc2c(c1)CCCC2 (stereo not drawn) [SA031]	62.23%	76.14%
Cc1cc(C)cc(S(=O)(=O)CC2CCC(C3CC3)CC2)c1 (stereo not drawn) [SA032]	80.29%	88.64%
O=S(=O)(CC1CCC(C2CC2)CC1)c1ccc(C(F)(F)F)cc1 (stereo not drawn) [SA033]	96.01%	96.16%
Cc1ccccc1S(=O)(=O)CC1CCC(C2CC2)CC1 (stereo not drawn) [SA034]	77.96%	87.42%
Cc1ccc(S(=O)(=O)CC2CCC(C3CC3)CC2)c(C)c1 (stereo not drawn) [SA035]	98.96%	116.6%
Cc1cccc(C)c1S(=O)(=O)CC1CCC(C2CC2)CC1 (stereo not drawn) [SA036]	71.57%	57.59%
Cc1c(C)c(C)c(S(=O)(=O)CC2CCC(C3CC3)CC2)c(C)c1C (stereo not drawn) [SA037]	42.93%	35.53%
O=S(=O)(CC1CCC(C2CC2)CC1)c1ccc2c(c1)CCCC2 (stereo not drawn) [SA038]	69.77%	94.4%
CCCc1ccc(S(=O)(=O)CC2CCC(C3CC3)CC2)cc1 (stereo not drawn) [SA039]	97.44%	56.65%
Cc1ccc(S(=O)(=O)C2CCC(CS(=O)(=O)c3ccccc3)CC2)cc1 (stereo not drawn) [SA040]	44.87%	51.54%
Cc1cccc(S(=O)(=O)CC2CCC(C3CC3)CC2)c1 (stereo not drawn) [SA041]	88.82%	87.17%
Cc1ccc(S(=O)(=O)CC2CCC(C3CC3)CC2)cc1C (stereo not drawn) [SA042]	94.62%	100.9%
CCS(=O)(=O)C1CCC(CS(=O)(=O)c2ccc(C)cc2)CC1 (stereo not drawn) [SA044]	87.25%	63.33%
CS(=O)(=O)C1CCC(CS(=O)(=O)c2ccc3c(c2)CCCC3)CC1 (stereo not drawn) [SA046]	75.23%	83.81%
O=S(=O)(CC1CCC(S(=O)(=O)c2cccs2)CC1)c1ccc2c(c1)CCCC2 (stereo not drawn) [SA047]	47.4%	56.12%
O=S(=O)(CC1CCC(S(=O)(=O)c2ccccc2)CC1)c1ccccc1 (stereo not drawn) [SA049]	39.58%	43.7%
Cc1ccc(S(=O)(=O)CC2CCC(C3CC3)CC2)c(C)c1 (stereo not drawn) [SA050]	60.42%	92.26%
Cc1ccc(C)c(S(=O)(=O)CC2CCC(C3CC3)CC2)c1 (stereo not drawn) [SA052]	47.69%	54.65%
